Assay results taken from ChEMBL document CHEMBL5500363, “Discovery of novel ocotillol derivatives modulating glucocorticoid receptor/NF-κB signaling for the treatment of sepsis” (Eur J Med Chem, 2024).
The source made the active and inactive calls.

How the values were obtained:
RAW264.7 [1] = test: Inhibition of LPS-induced NO production in mouse RAW264.7 cells at 20 uM pretreated for 2 hrs followed by LPS stimulation for 24 hrs by Griess assay relative to control; assay type: functional; conditions: time 26 hrs
[2] = target: T1, Glucocorticoid receptor (Mus musculus) (UniProt P06537); test: Modulation of glucocorticoid receptor in LPS-treated mouse RAW264.7 cells assessed as protein translocation from cytoplasm to nucleus at 20 uM pretreated for 12 hrs followed by LPS stimulation for 2 hrs by immunofluorescence based analysis; assay type: subcellular; conditions: filed as modulator, time 14.0 hrs
T1 sequence (whole entry): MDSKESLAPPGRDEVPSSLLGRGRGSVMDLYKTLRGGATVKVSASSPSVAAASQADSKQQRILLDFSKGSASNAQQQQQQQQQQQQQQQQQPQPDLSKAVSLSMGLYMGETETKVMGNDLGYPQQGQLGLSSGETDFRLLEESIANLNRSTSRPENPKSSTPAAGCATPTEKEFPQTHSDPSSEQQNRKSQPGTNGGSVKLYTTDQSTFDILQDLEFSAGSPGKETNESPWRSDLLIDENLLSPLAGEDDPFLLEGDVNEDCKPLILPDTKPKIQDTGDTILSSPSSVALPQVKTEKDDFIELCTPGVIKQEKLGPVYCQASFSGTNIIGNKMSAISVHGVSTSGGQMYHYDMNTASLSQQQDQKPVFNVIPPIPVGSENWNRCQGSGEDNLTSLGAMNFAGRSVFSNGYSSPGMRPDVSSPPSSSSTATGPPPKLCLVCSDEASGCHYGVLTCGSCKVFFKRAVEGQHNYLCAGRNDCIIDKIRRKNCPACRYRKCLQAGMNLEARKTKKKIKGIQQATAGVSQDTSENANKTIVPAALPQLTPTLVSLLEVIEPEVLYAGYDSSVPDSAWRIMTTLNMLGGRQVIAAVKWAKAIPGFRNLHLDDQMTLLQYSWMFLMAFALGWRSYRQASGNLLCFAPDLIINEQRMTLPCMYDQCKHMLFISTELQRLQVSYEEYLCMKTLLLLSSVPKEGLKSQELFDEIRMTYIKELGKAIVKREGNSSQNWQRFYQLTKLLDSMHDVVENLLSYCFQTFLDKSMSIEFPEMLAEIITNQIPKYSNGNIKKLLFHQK

Mus musculus [3] = test: Downregulation of p65 phosphorylation in liver of LPS-induced sepsis BALB/c mouse model at 7.5 to 30 mg/kg administered via gavage for 3 days followed by LPS treatment for 6 hrs by Western blot analysis; assay type: functional, organism-based; conditions: dose 7.5-30 mg/kg, time 78.0 hrs
[4] = target: T1, Glucocorticoid receptor (Mus musculus); test: Stabilization of glucocorticoid receptor in mouse RAW264.7 cells assessed as blockade of CHX-induced protein degradation at 20 uM incubated for 24 hrs by Western blot analysis; assay type: cell-based
Mus musculus [5] = test: Anti-septic activity in LPS-induced sepsis BALB/c mouse assessed as body weight recovery at 7.5 to 30 mg/kg administered via gavage for 3 days followed by LPS treatment for 6 hrs; assay type: functional, organism-based; conditions: dose 7.5-30 mg/kg, time 78.0 hrs
[6] = Cytotoxicity against mouse RAW264.7 cells assessed as cell viability at 40 uM incubated for 24 hrs by MTT assay relative to control; assay type: toxicity, cell-based; conditions: read-out: Activity
RAW264.7 [7] = test: Effect on KLF9 mRNA expression in mouse RAW264.7 cells by qPCR analysis; assay type: functional, cell-based
Mus musculus [8] = test: Anti-septic activity in LPS-induced sepsis BALB/c mouse assessed as reduction in serum ALT level at 30 mg/kg administered via gavage for 3 days followed by LPS treatment for 6 hrs; assay type: functional, organism-based; conditions: time 78.0 hrs
RAW264.7 [9] = test: Inhibition of LPS-induced NO production in mouse RAW264.7 cells at 5 uM pretreated for 2 hrs followed by LPS stimulation for 24 hrs by Griess assay relative to control; assay type: functional; conditions: time 26 hrs
Mus musculus [10] = test: Anti-septic activity in LPS-induced sepsis BALB/c mouse assessed as reduction in serum TNF-alpha level at 7.5 to 30 mg/kg administered via gavage for 3 days followed by LPS treatment for 6 hrs by ELISA; assay type: functional, organism-based; conditions: dose 7.5-30 mg/kg, time 78.0 hrs
RAW264.7 [11] = test: Anti-inflammatory activity in LPS-treated mouse RAW264.7 cells assessed as reversal of nuclear translocation of p65 at 20 uM pretreated for 2 hrs followed by LPS stimulation for 24 hrs by immunofluorescence analysis; assay type: functional, cell-based; conditions: time 26.0 hrs
RAW264.7 [12] = test: Upregulation of glucocorticoid receptor expression in LPS-treated mouse RAW264.7 cells pretreated for 2 hrs followed by LPS stimulation for 24 hrs by Western blot analysis; assay type: functional, cell-based; conditions: time 26.0 hrs
Mus musculus [13] = test: Upregulation of glucocorticoid receptor expression in liver of LPS-induced sepsis BALB/c mouse model at 7.5 to 30 mg/kg administered via gavage for 3 days followed by LPS treatment for 6 hrs by Western blot analysis; assay type: functional, organism-based; conditions: dose 7.5-30 mg/kg, time 78.0 hrs
Mus musculus [14] = test: Anti-septic activity in LPS-induced sepsis BALB/c mouse assessed as reduction in lung tissue damage at 7.5 to 30 mg/kg administered via gavage for 3 days followed by LPS treatment for 6 hrs by H and E staining based analysis; assay type: functional, organism-based; conditions: dose 7.5-30 mg/kg, time 78.0 hrs
Mus musculus [15] = test: Anti-septic activity in LPS-induced sepsis BALB/c mouse assessed as reduction in hepatic hemorrhage at 7.5 to 30 mg/kg administered via gavage for 3 days followed by LPS treatment for 6 hrs by H and E staining based analysis; assay type: functional, organism-based; conditions: dose 7.5-30 mg/kg, time 78.0 hrs
Mus musculus [16] = test: Anti-septic activity in LPS-induced sepsis BALB/c mouse assessed as reduction in pathological change in kidney at 7.5 to 30 mg/kg administered via gavage for 3 days followed by LPS treatment for 6 hrs by H and E staining based analysis; assay type: functional, organism-based; conditions: dose 7.5-30 mg/kg, time 78.0 hrs
RAW264.7 [17] = test: Downregulation of glucocorticoid receptor in mouse RAW264.7 cells at 20 uM incubated for 24 hrs by Western blot analysis; assay type: functional, cell-based
Mus musculus [18] = test: Downregulation of I-kappa-B-alpha phosphorylation in liver of LPS-induced sepsis BALB/c mouse model at 7.5 to 30 mg/kg administered via gavage for 3 days followed by LPS treatment for 6 hrs by Western blot analysis; assay type: functional, organism-based; conditions: dose 7.5-30 mg/kg, time 78.0 hrs
RAW264.7 [19] = test: Anti-inflammatory activity in mouse RAW264.7 cells assessed as inhibition of LPS-induced IL-6 production pretreated for 2 hrs followed by LPS stimulation for 24 hrs by ELISA; assay type: functional, cell-based; conditions: dose 5-20 µM
RAW264.7 [20] = test: Anti-inflammatory activity in mouse RAW264.7 cells assessed as decrease in LPS-induced p65 phosphorylation at 20 uM pretreated for 2 hrs followed by LPS stimulation for 24 hrs by Western blot analysis; assay type: functional, cell-based; conditions: time 26.0 hrs
Mus musculus [21] = test: Anti-septic activity in LPS-induced sepsis BALB/c mouse assessed as increase in survival rate at 7.5 to 30 mg/kg administered via gavage for 3 days followed by LPS treatment for 6 hrs; assay type: functional, organism-based; conditions: dose 7.5-30 mg/kg, time 78.0 hrs
RAW264.7 [22] = test: Anti-inflammatory activity in mouse RAW264.7 cells assessed as decrease in LPS-induced I-kappaB-alpha phosphorylation at 20 uM pretreated for 2 hrs followed by LPS stimulation for 24 hrs by Western blot analysis; assay type: functional, cell-based; conditions: time 26.0 hrs
[23] = target: T1, Glucocorticoid receptor (Mus musculus); test: Binding affinity to glucocorticoid receptor in mouse RAW264.7 cells assessed as increase in thermal stability at 47 to 51 degreeC at 40 uM pretreated for 24 hrs followed by heat exposure for 3 mins and subsequently incubated at room temperature for 3 mins by CETSA; assay type: cell-based; conditions: time 1446.0 min
RAW264.7 [24] = test: Inhibition of LPS-induced NO production in mouse RAW264.7 cells pretreated for 2 hrs followed by LPS stimulation for 24 hrs by Griess assay; assay type: functional, cell-based

CC(C)(C)OC(=O)CCC(=O)Nc1nc2c(s1)C[C@]1(C)[C@H]3C[C@@H](O)[C@@H]4C([C@]5(C)CC[C@@H](C(C)(C)O)O5)CC[C@@]4(C)[C@]3(C)CC[C@H]1C2(C)C (some centres undefined)
active: Activity [2] | Activity (Mus musculus [3]) | Activity [4] | Activity (Mus musculus [5]) | Activity (Mus musculus [8]) | Activity (Mus musculus [10]) | Activity (RAW264.7 [11]) | Activity (RAW264.7 [12]) | Activity (Mus musculus [13]) | Activity (Mus musculus [14]) | Activity (Mus musculus [15]) | Activity (Mus musculus [16]) | Activity (Mus musculus [18]) | inhibition (RAW264.7 [19]) Dose-Dependent Effect | Activity (RAW264.7 [20]) | Activity (Mus musculus [21]) | Activity (RAW264.7 [22]) | Activity [23]
inactive: Activity (RAW264.7 [7]) | Activity (RAW264.7 [17])
30.3%: inhibition at 5 µM (RAW264.7 [9])
86%: inhibition at 20 µM (RAW264.7 [1])
3.38 µM: IC50 (RAW264.7 [24])
> 90%: viability at 24 h, 40 µM [6]
